Where two headings read alike, the source gives them in different places.

Results on 1 compound are retold here after patent US11628181B2, “N4-hydroxycytidine and derivatives and anti-viral uses related thereto” (Emory University, priority 2014, dated 2023).

A short description of data set [1]: Rodent pharmacokinetic experiment in mice. In kind it is in vivo, DBA-1J mice. The conditions noted are these: female, DBA-1J, mouse, plasma, after IV dosing, read-out: plasma T1/2 (converted).
For another data set, the system named is CHIK virus. As to the kind of experiment: Mouse model of Chikungunya infection. To be noted: CHIKV challenged mice, 25 or 35 mg/kg i.p.
For data set [2] the following is noted: rat, in vivo, po, 50 mg/kg.
A short description of the next data set: in vivo. To be noted: male, SD, rat, po, 50 mg/kg.
In another data set the test system is CEM cells. As to the kind of experiment: Cytotoxicity profile, selectivity index in CEM cells. In kind it is cell-based. To be noted: CEM cells (low of range).
A short description of data set [3]: Rodent pharmacokinetic experiment in mice. In kind it is in vivo, DBA-1J mice. To be noted: for concentration at 24 hr: read-out: 24 hr plasma levels. The method, then:
DBA-1J mice (6-8 weeks old, female) were acclimated for ≥2 days after receipt. Mice were weighed the day before dosing to calculate dosing volumes. Mice were dosed by oral gavage with drug at 30 mg/kg, 100 mg/kg & 300 mg/kg. The mice were sampled at […] time points: 0.5, 1, 2, 3, 4, 8 and 24 hrs (3 mice per time point for test drug). The mice were euthanized and their organs were collected (see below). In order to collected blood, mice with euthanized by CO2 at the appropriate time point listed above. Blood was obtained by cardiac puncture (0.3 ml) at each time point. Following blood collection, the organs were removed from the mice (see below). The blood was processed by inverting Li-Heparin tube with blood gently 2 or 3 times to mix well. The tubes were then placed in a rack in ice water until able to centrifuge (≤1 hour). As soon as practical, the blood was centrifuged at ˜2000×g for 10 min in a refrigerated centrifuge to obtain plasma. Then, using a 200 μL pipette, the plasma was transferred to a labeled 1.5 ml Eppendorf tube in ice water. The plasma was then frozen in freezer or on dry ice. The samples were stored at −80° C. prior to analysis. Organs were collected from euthanized mice. The organs (lungs, liver, kidney, spleen and heart) were removed, placed in a tube, and immediately frozen in liquid nitrogen. The tubes were then transferred to dry ice. The samples were saved in cryogenic tissue vials. Samples were analyzed by LC-MS/MS using an ABSCIEX 5500 QTRAP LC-MS/MS system with a Hypercarb (PGC) column.

Another data set deals with VEE virus. The data set can be described thus: organism not typed. In kind it is cell-based. The conditions noted are these: Vero.
Data set [4] is described as follows: 6 day q.d. intraperitoneal toxicology in mice. In kind it is in vivo. The text has this:
Alternatively, drug delivery by aerosol (nasal spray) administration may immediately achieve therapeutic levels of drug in the nasal mucosa and the brain.

By bioavailability is commonly meant the share of a dose that reaches the circulation, judged against a reference dose that is usually intravenous. As a reminder, the Cmax is the highest concentration seen after dosing. The Tmax is the time at which the peak concentration occurs. Usually EC50 stands for the midpoint of the concentration-response curve. As for `O=c1nc(NO)ccn1[C@@H]1O[C@H](CO)[C@H](O)C1O` (stereo partly shown) [EIDD-01931, 1-(3,4-dihydroxy-5-(hydroxymethyl)tetrahydrofuran-2-yl)-4-(hydroxyamino)pyrimidin-2-one], the half-life in data set [1] is 2.2 h; in data set [3] (female, DBA-1J, mouse, plasma, after PO dosing, read-out: plasma T1/2), 4.1 to 4.7 h. The CC50 in the data set on CHIKV is over 500000 nM. Also, the “CHIKV RNA copies by PCR (FIG. 8)” value in the data set on CHIK virus (after 7 days) is “reduction of CHIKV RNA copies”. Besides, the “footpad swelling (FIG. 7)” value with CHIK virus (daily for 7 days) is listed as “reduction in footpad swelling”. For the same compound, in data set [2], the “tissue distribution (brain, lung, spleen, kidney and liver)” value was “well distributed into all tissues tested”. This compound displayed a bioavailability in the data set “in vivo” of 28%. The selectivity index with CEM cells turned out to be 8. Besides, the “Bioavailability (versus I.P. delivery)” value in data set [3] (PO 30 mg/kg) is given as 65%; in data set [3] (PO 100 and 300 mg/kg), 39-46%. Also, the maximum concentration (Cmax) in data set [3] (female, DBA-1J, mouse, plasma, PO 30 mg/kg) was found to be 3 ng/mL; in [3] (female, DBA-1J, mouse, plasma, PO 100 mg/kg), 7.7 ng/mL; in data set [3] (female, DBA-1J, mouse, plasma, PO 300 mg/kg), 11.7 ng/mL. Besides, the Tmax in data set [3] (female, DBA-1J, mouse, plasma, oral gavage, read-out: Tmax after oral dosing) lay in the range of 0.25 to 0.5 h. The concentration at 24 hr in data set [3] (female, DBA-1J, mouse, plasma, oral, 100 mg/kg dose) is about 100 nM; in data set [3] (female, DBA-1J, mouse, plasma, po, 300 mg/kg P.O.), about 400 nM. The same compound had an EC50 in the data set with VEE virus of 1000 nM. In data set [4] (6 day q.d. IP injections), the “NOEL (NO Effect Level)” value amounted to 33 mg/kg. The body weight effect entry in data set [4] (highest dose tested (100 mg/kg) IP q.d., reversed on cessation of dosing) was “weight loss was observed”.
